According to paper PMC11728000, “Antitumor Activity and Multi-Target Mechanism of Phenolic Schiff Bases Bearing Methanesulfonamide Fragments: Cell Cycle Analysis and a Molecular Modeling Study” (International Journal of Molecular Sciences, 2024):
Read-outs that look alike come from different tables or passages of the source.

What was measured:
[1] = system: Prostate Cancer subpanel tumor cell lines; conditions: cited from earlier work; for GI50: read-out: GI50, subpanel average, ref https://dtp.cancer.gov/dtpstandard/dwindex/index.jsp; for CC50: read-out: LC50, subpanel average, ref https://dtp.cancer.gov/dtpstandard/dwindex/index.jsp; for TGI, subpanel average: ref https://dtp.cancer.gov/dtpstandard/dwindex/index.jsp
SK-MEL-28 = system: SK-MEL-28; design: method as in https://dtp.cancer.gov/dtpstandard/dwindex/index.jsp; conditions: ref https://dtp.cancer.gov/dtpstandard/dwindex/index.jsp; cited from earlier work
CAKI-1 = system: CAKI-1; design: method as in https://dtp.cancer.gov/dtpstandard/dwindex/index.jsp; conditions: ref https://dtp.cancer.gov/dtpstandard/dwindex/index.jsp; cited from earlier work
[2] = system: Melanoma subpanel tumor cell lines; conditions: cited from earlier work; for GI50: read-out: GI50, subpanel average, ref https://dtp.cancer.gov/dtpstandard/dwindex/index.jsp; for CC50: read-out: LC50, subpanel average, ref https://dtp.cancer.gov/dtpstandard/dwindex/index.jsp; for TGI, subpanel average: ref https://dtp.cancer.gov/dtpstandard/dwindex/index.jsp
SW-620 [3] = system: SW-620; design: method as in https://dtp.cancer.gov/dtpstandard/dwindex/index.jsp; conditions: ref https://dtp.cancer.gov/dtpstandard/dwindex/index.jsp; cited from earlier work
[4] = system: 59 human cancer cell lines; conditions: full panel mean-graph midpoint, ref https://dtp.cancer.gov/dtpstandard/dwindex/index.jsp, cited from earlier work; for GI50: read-out: GI50 MG-MID; for CC50: read-out: LC50 MG-MID
PC-3 = system: PC-3; design: method as in https://dtp.cancer.gov/dtpstandard/dwindex/index.jsp; conditions: ref https://dtp.cancer.gov/dtpstandard/dwindex/index.jsp; cited from earlier work
A549/ATCC = system: A549/ATCC; design: method as in https://dtp.cancer.gov/dtpstandard/dwindex/index.jsp; conditions: ref https://dtp.cancer.gov/dtpstandard/dwindex/index.jsp; cited from earlier work
T-47D = system: T-47D; design: method as in https://dtp.cancer.gov/dtpstandard/dwindex/index.jsp; conditions: ref https://dtp.cancer.gov/dtpstandard/dwindex/index.jsp; cited from earlier work
SNB-19 = system: SNB-19; design: method as in https://dtp.cancer.gov/dtpstandard/dwindex/index.jsp; conditions: ref https://dtp.cancer.gov/dtpstandard/dwindex/index.jsp; cited from earlier work
TK-10 = system: TK-10; design: method as in https://dtp.cancer.gov/dtpstandard/dwindex/index.jsp; conditions: ref https://dtp.cancer.gov/dtpstandard/dwindex/index.jsp; cited from earlier work
SF-295 = system: SF-295; design: method as in https://dtp.cancer.gov/dtpstandard/dwindex/index.jsp; conditions: ref https://dtp.cancer.gov/dtpstandard/dwindex/index.jsp; cited from earlier work
[5] = system: NSC Lung Cancer subpanel tumor cell lines; conditions: cited from earlier work; for GI50: read-out: GI50, subpanel average, ref https://dtp.cancer.gov/dtpstandard/dwindex/index.jsp; for CC50: read-out: LC50, subpanel average, ref https://dtp.cancer.gov/dtpstandard/dwindex/index.jsp; for TGI, subpanel average: ref https://dtp.cancer.gov/dtpstandard/dwindex/index.jsp
[6] = system: CNS Cancer subpanel tumor cell lines; conditions: cited from earlier work; for GI50: read-out: GI50, subpanel average, ref https://dtp.cancer.gov/dtpstandard/dwindex/index.jsp; for CC50: read-out: LC50, subpanel average, ref https://dtp.cancer.gov/dtpstandard/dwindex/index.jsp; for TGI, subpanel average: ref https://dtp.cancer.gov/dtpstandard/dwindex/index.jsp
LOX IMVI = system: LOX IMVI; design: method as in https://dtp.cancer.gov/dtpstandard/dwindex/index.jsp; conditions: ref https://dtp.cancer.gov/dtpstandard/dwindex/index.jsp; cited from earlier work
UO-31 = system: UO-31; design: method as in https://dtp.cancer.gov/dtpstandard/dwindex/index.jsp; conditions: ref https://dtp.cancer.gov/dtpstandard/dwindex/index.jsp; cited from earlier work
HOP-62 [7] = system: HOP-62; design: method as in https://dtp.cancer.gov/dtpstandard/dwindex/index.jsp; conditions: ref https://dtp.cancer.gov/dtpstandard/dwindex/index.jsp; cited from earlier work
MALME-3M = system: MALME-3M; design: method as in https://dtp.cancer.gov/dtpstandard/dwindex/index.jsp; conditions: ref https://dtp.cancer.gov/dtpstandard/dwindex/index.jsp; cited from earlier work
KM12 = system: KM12; design: method as in https://dtp.cancer.gov/dtpstandard/dwindex/index.jsp; conditions: ref https://dtp.cancer.gov/dtpstandard/dwindex/index.jsp; cited from earlier work
UACC-257 = system: UACC-257; design: method as in https://dtp.cancer.gov/dtpstandard/dwindex/index.jsp; conditions: ref https://dtp.cancer.gov/dtpstandard/dwindex/index.jsp; cited from earlier work
SK-MEL-2 = system: SK-MEL-2; design: method as in https://dtp.cancer.gov/dtpstandard/dwindex/index.jsp; conditions: ref https://dtp.cancer.gov/dtpstandard/dwindex/index.jsp; cited from earlier work
HT29 = system: HT29; design: method as in https://dtp.cancer.gov/dtpstandard/dwindex/index.jsp; conditions: ref https://dtp.cancer.gov/dtpstandard/dwindex/index.jsp; cited from earlier work
RXF 393 = system: RXF 393; design: method as in https://dtp.cancer.gov/dtpstandard/dwindex/index.jsp; conditions: ref https://dtp.cancer.gov/dtpstandard/dwindex/index.jsp; cited from earlier work
A498 = system: A498; design: method as in https://dtp.cancer.gov/dtpstandard/dwindex/index.jsp; conditions: ref https://dtp.cancer.gov/dtpstandard/dwindex/index.jsp; cited from earlier work
in vitro = conditions: human
Procedure: the measured protein at the end of the drug treatment as compared to that at the beginning) indicating a net loss of cells following treatment was calculated from [(Ti − Tz)/Tz] […] = − 50.
Values were calculated for each of these three parameters if the activity level was reached; however, if the effect was not reached or exceeded, that parameter's value was expressed as more or less than the maximum or minimum concentration tested. The log GI50, log TGI, and log LC50 were then determined and defined as the mean of the logs of the individual GI50, TGI, and LC50 values. The lowest values are obtained with the most sensitive cell lines. The compound with log GI50 values −4 and <−4 was declared active.
2. In vitro cytotoxic activity towards normal fibroblast (WI-38) cells Cell Lines were obtained from the American Type Culture Collection; cells were cultured using DMEM (Invitrogen/Life Technologies) supplemented with 10% FBS (Hyclone), ten ug/ml of insulin (Sigma), and 1% penicillin–streptomycin. Cultures were removed from the incubator into a laminar flow hood, reconstituted with 3 mL of balanced salt solution without phenol red and serum, and then added to an amount equal to 10% of the culture medium volume. Cultures returned to the incubator for 2–4 h. After the incubation period, the resulting formazan crystals dissolved […]
medium volume. The absorbance was measured Spectrophotometrically at a wavelength of 570 […]
3. In vitro cyclooxygenase (COX-2) inhibition assay
The ability of the test compounds to inhibit COX-2 was determined using an enzyme immunoassay […]
manufacturer’s instructions.

EGFR = EGFR (Homo sapiens, UniProt P00533); test: EGFR tyrosine kinase inhibition assay (Kinase-Glo MAX)
DU-145 = test: NCI anticancer screening (SRB), Prostate Cancer subpanel; format: cell-based, human; conditions: for GI%: 10.0 µM in one dose
MCF-7 = test: NCI anticancer screening (SRB), Breast Cancer subpanel; format: cell-based, human; conditions: for GI%: 10.0 µM in one dose
SW-620 [8] = test: NCI anticancer screening (SRB), Colon Cancer subpanel; format: cell-based, human; conditions: for GI%: 10.0 µM in one dose
HOP-62 [9] = test: NCI anticancer screening (SRB), Non-Small Cell Lung Cancer subpanel; format: cell-based, human; conditions: for GI%: 10.0 µM in one dose
NCI-H226 = system: NCI-H226; design: method as in https://dtp.cancer.gov/dtpstandard/dwindex/index.jsp; conditions: ref https://dtp.cancer.gov/dtpstandard/dwindex/index.jsp; cited from earlier work
[10] = Homo sapiens, five concentrations

Chain of EGFR (P00533 25-1210): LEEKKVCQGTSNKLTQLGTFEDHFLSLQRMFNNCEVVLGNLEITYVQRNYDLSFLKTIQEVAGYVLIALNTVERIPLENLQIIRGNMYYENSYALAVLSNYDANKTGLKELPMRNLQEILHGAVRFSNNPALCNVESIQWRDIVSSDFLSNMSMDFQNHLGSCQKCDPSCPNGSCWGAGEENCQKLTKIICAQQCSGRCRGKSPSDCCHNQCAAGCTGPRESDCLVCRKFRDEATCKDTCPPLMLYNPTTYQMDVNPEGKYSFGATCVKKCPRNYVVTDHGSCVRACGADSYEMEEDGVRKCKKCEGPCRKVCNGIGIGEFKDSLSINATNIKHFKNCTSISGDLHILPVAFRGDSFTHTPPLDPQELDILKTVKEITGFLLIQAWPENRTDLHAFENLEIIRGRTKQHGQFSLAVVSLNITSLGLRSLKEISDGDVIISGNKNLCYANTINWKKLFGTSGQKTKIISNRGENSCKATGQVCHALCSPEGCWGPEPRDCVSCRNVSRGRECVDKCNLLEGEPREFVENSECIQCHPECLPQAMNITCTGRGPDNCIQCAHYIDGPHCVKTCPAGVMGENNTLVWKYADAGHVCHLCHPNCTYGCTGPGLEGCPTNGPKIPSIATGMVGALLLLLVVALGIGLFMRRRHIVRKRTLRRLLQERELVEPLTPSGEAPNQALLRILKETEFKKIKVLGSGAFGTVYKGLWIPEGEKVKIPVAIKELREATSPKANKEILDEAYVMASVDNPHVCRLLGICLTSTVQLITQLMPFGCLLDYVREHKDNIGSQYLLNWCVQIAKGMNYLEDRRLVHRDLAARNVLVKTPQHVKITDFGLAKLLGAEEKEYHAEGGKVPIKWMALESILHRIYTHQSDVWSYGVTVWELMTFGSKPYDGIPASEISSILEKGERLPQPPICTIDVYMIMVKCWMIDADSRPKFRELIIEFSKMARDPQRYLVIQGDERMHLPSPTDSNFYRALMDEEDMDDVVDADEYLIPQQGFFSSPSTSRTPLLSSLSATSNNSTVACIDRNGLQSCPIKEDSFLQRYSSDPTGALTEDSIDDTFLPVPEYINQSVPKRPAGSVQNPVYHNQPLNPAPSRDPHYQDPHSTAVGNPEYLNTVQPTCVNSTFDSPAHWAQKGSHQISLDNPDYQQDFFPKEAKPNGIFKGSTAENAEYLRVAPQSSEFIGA

SMILES	GI50 [1] [µM]	TGI, subpanel average [1]	GI50 (SK-MEL-28) [µM]	GI50 [2] [µM]	TGI, subpanel average [2] [µM]	TGI MG-MID [4] [µM]	GI50 [4] [µM]	GI50 (A549/ATCC) [µM]	GI50 (SNB-19) [µM]	GI50 (TK-10) [µM]	TGI, subpanel average [5] [µM]	GI50 [6] [µM]	TGI, subpanel average [6] [µM]	GI50 (UO-31) [µM]	GI50 (HOP-62 [7]) [µM]	GI50 (MALME-3M) [µM]	GI50 (UACC-257) [µM]	GI50 (SK-MEL-2) [µM]	GI50 (HT29) [µM]	GI50 (RXF 393) [µM]	further results
Cc1ccc(-c2cc(C(F)(F)F)nn2-c2ccc(S(N)(=O)=O)cc2)cc1 [Celecoxib, celecoxib]	14.2	28.37 µM	15.8	22.5	38.49	34.0	17.5	15.8	19.9	19.9	41.93	17.2	31.62	15.8	63.1	19.9	19.9	15.8	15.8	15.8	CC50 [1]: 57 µM; GI50 (CAKI-1): 19.9 µM; CC50 [2]: 64.3 µM; GI50 (SW-620 [3]): 15.8 µM; CC50 [4]: 63.3 µM; GI50 (PC-3): 12.6 µM; GI50 (T-47D): 15.8 µM; GI50 (SF-295): 15.8 µM; GI50 [5]: 25.1 µM; CC50 [5]: 67.1 µM; CC50 [6]: 58.8 µM; GI50 (LOX IMVI): 19.9 µM; GI50 (KM12): 15.8 µM; GI50 (A498): 15.8 µM
CS(=O)(=O)Nc1ccc(C(=O)NN=Cc2ccccc2O)cc1 [Compound 7]	–	–	–	–	–	–	–	–	–	–	–	–	–	–	–	–	–	–	–	–	IC50 (in vitro): 111 µM; IC50 (EGFR): 0.752 ± 0.05 µM; GI% (DU-145): 33%; GI% (MCF-7): 21%; GI% (SW-620 [8]): 35%; GI% (HOP-62 [9]): 61%
CCN(CC)c1ccc(C=NNC(=O)c2ccc(NS(C)(=O)=O)cc2)c(O)c1 [Compound 8]	–	–	–	–	–	–	–	–	–	–	–	–	–	–	–	–	–	–	–	–	IC50 (in vitro): 82.1 µM; IC50 (EGFR): 0.166 ± 0.033 µM; GI% (DU-145): 69%; GI50 (DU-145; [10]): 0.685 µM; GI% (MCF-7): 94%; GI50 (MCF-7; Homo sapiens, MCF7, five concentrations): 0.416 µM; GI% (SW-620 [8]): 63%; GI50 (SW-620 [8]; [10]): 0.471 µM; GI% (HOP-62 [9]): 87%; GI50 (HOP-62 [9]; [10]): 0.189 µM
C#Cc1cccc(Nc2ncnc3cc(OCCOC)c(OCCOC)cc23)c1 [Erlotinib, erlotinib]	20.9	c (compounds showed values ≥ 100 μM)	50.1	23.7	77.89	66.3	7.68	10	12.6	0.251	73.76	17	82.11	1	15.8	1.58	100	6.31	63.1	3.98	CC50 [1]: > 100 µM; GI50 (CAKI-1): 0.199 µM; CC50 [2]: 93.3 µM; GI50 (SW-620 [3]): 79.4 µM; CC50 [4]: 95.6 µM; GI50 (PC-3): 39.8 µM; GI50 (T-47D): 3.98 µM; GI50 (SF-295): 15.8 µM; GI50 [5]: 13.1 µM; CC50 [5]: 97.7 µM; CC50 [6]: > 100 µM; GI50 (LOX IMVI): 6.31 µM; GI50 (KM12): 79.4 µM; GI50 (NCI-H226): 39.8 µM; GI50 (A498): 2.51 µM
COc1cc2ncnc(Nc3ccc(F)c(Cl)c3)c2cc1OCCCN1CCOCC1 [Gefitinib, gefitinib]	3.29	31.62 µM	3.16	3.68	12.49	14.3	2.1	2.51	3.16	0.794	13.86	5.64	19.62	1.58	3.16	3.98	2.51	10	3.98	3.16	GI50 (T-47D): 7.94 µM; GI50 (SF-295): 10 µM; GI50 [5]: 2.05 µM; GI50 (LOX IMVI): 3.16 µM; GI50 (KM12): 10 µM; GI50 (NCI-H226): 3.98 µM
CNC(=O)c1cc(Oc2ccc(NC(=O)Nc3ccc(Cl)c(C(F)(F)F)c3)cc2)ccn1 [Sorafenib, sorafenib]	2.58	10.27 µM	2.51	1.87	6.29	9.11	2.33	3.16	3.16	3.98	7.99	2.33	7.64	2.51	1.99	1.99	1.99	1.99	1.99	2.51	CC50 [1]: 69.9 µM; GI50 (CAKI-1): 3.16 µM; CC50 [2]: 28.6 µM; GI50 (SW-620 [3]): 2.51 µM; CC50 [4]: 43.1 µM; GI50 (PC-3): 1.99 µM; CC50 [5]: 49.1 µM; CC50 [6]: 27.8 µM; GI50 (NCI-H226): 1.99 µM; GI50 (A498): 2.51 µM
